Where no end group is shown, it is not given here.
Assay: pair feeding in rats (food intake and body weight)
Assay type: in vivo, Male Wistar rats
Settings: for body weight gain versus corresponding pair-fed (PF) group: 10 days; for body weight gain versus corresponding pair-fed (PF) group / overall body weight change by the end of the 10 day test period versus saline control: FIG. 12b; for total food intake over 10 days / overall body weight change by the end of the 10 day test period versus saline control: daily injection, exendin-4 30, 285 100, 373 50, 398 200 nmol/kg; for total food intake over 10 days: FIG. 12a
Source text: Pair feeding is a technique used to separate the weight loss observed in a cohort of animals which has been caused by appetite suppression from the weight loss caused by the induction of metabolic changes. Pair-feeding studies require daily measurement of body weight (BW) and food intake (FI). In pair-feeding studies, rats were divided into three weight-matched groups. Group 1 (the “saline” group) were given a daily injection of saline and allowed access to ad libitum food. Group 2 (identified by the code of the compound administered) were given daily injection of a selected compound of the invention and allowed access to ad libitum food.

Row | Substance | body weight compared to the saline control (100 nmol/kg daily) | body weight reduction versus pair-fed (G237 PF) group (100 nmol/kg daily) | body weight gain versus corresponding pair-fed (PF) group | total food intake over 10 days | overall body weight change by the end of the 10 day test period versus saline control
1 | HSQGTFTSDYSKYLDSQAVHLFIQWLLNGGPSSGAPPPS [compound 237] | reduction in body weight compared to the saline control | not solely mediated by a reduction in food intake |  |  | 
2 | His Ser Gln Gly Thr Phe Thr Ser Asp Tyr Ser His Tyr Leu Asp Ser Lys Ala Val His Leu Phe Ile Gln Trp Leu Leu Asn Gly-NH2 (HSQGTFTSDYSHYLDSKAVHLFIQWLLNG-NH2) [compound 285] |  |  | lower weight gains than the corresponding paired feeding groups | less overall food intake | lower body weight gain than the saline control group
3 | His Ser Gln Gly Thr Phe Thr Ser Asp Tyr Ser Lys Tyr Leu Asp Ser Gln Ala Val Arg Leu Phe Ile Glu Trp Leu Leu Asn Gly-NH2 (HSQGTFTSDYSKYLDSQAVRLFIEWLLNG-NH2) [compound 398] |  |  | lower weight gains than the corresponding paired feeding groups | less overall food intake | lower body weight gain than the saline control group
4 | His Ser Gln Gly Thr Phe Thr Ser Asp Tyr Ser Lys Tyr Leu Glu Ser Gln Ala Val His Leu Phe Ile Glu Trp Leu Lys Asn Gly-NH2 (HSQGTFTSDYSKYLESQAVHLFIEWLKNG-NH2) [compound 373] |  |  | lower weight gains than the corresponding paired feeding groups | less overall food intake | lower body weight gain than the saline control group

Source: patent US9944687B2, “Compounds and their effects on feeding behaviour” (Imperial Innovations Limited, priority 2011, dated 2018)
